Where “and” joins values, the source holds several entries; their conditions need not be identical. Equal values may be shown once.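 Growth conditions: 96-well plates. Treatment: test compound, 48 hours, 5 concentrations. Analysis: linear interpolation between bracketing concentrations; unreached endpoints set to highest concentration. Here, GI50 denotes the concentration required for 50% inhibition of growth. TGI denotes the concentration required for complete inhibition of growth.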
What was measured:
Experiment in all cases: NCI-60 cell line screen, 48 h
[1] = tested on: SN12C renal
[2] = tested on: LXFL 529 NSCLC
[3] = tested on: OVCAR-3 ovarian
[4] = tested on: HOP-62 NSCLC
[5] = tested on: SF-295 CNS
[6] = tested on: OVCAR-4 ovarian
[7] = tested on: SR leukemia
[8] = tested on: SK-OV-3 ovarian
[9] = tested on: M19-MEL melanoma
[10] = tested on: OVCAR-8 ovarian

SMILES	TGI [1]	TGI [2] [µM]	TGI [3]	TGI [4]	TGI [5]	TGI [6]	TGI [7]	TGI [8]	TGI [9]	TGI [10] [µM]	GI50 [1] [µM]	GI50 [3] [µM]	GI50 [4] [µM]	GI50 [5] [µM]	GI50 [6] [µM]	GI50 [7]	GI50 [8] [µM]	GI50 [10] [µM]	GI50 [2] [µM]
Cc1nnc2n1N=C(c1ccc(-c3ccc([N+](=O)[O-])cc3)o1)CS2	> 100 µM	> 100	> 100 µM	> 100 µM	> 100 µM	> 100 µM	> 100 µM	> 100 µM	> 100 µM	> 100									
C=C1[C@@H](O)C[C@H]2C(C)(C)C[C@H](Cl)C[C@]2(C)[C@H]1C[C@H](O)[C@H]1CC(=O)NC1=O	0.108 µM		0.289 µM	0.0961 µM	0.0748 µM	0.391 µM		0.157 µM		0.163	< 0.01	0.0191	0.0116	< 0.0123	0.0174	0.0142 µM	0.0135	0.0155	
CNC12C3C4C1C1C2C3C41C(=O)N[C@H](C(=O)N(C)[C@H](C[C@@H](OC(C)=O)c1nc(C(=O)N[C@@H](Cc2ccccc2)C[C@H](C)C(=O)OC)cs1)C(C)C)C1CC1 (some centres undefined)	> 15 µM		0.372 µM	> 15 µM	1.31 µM	> 15 µM	> 7.82 µM	> 15 µM		> 15	0.612	0.0472	0.501	0.343	1.1	0.0179 µM	0.714	0.523	
Cc1ccc(NC(=O)N2CCCCC2)cc1[N+](=O)[O-]	> 100 µM		> 100 µM	> 100 µM	> 100 µM	> 100 µM	> 100 µM	> 100 µM		> 100	> 100	> 100	> 100	> 100	> 100	> 100 µM	> 100	> 100	
CCCC(=O)O[C@]1(C)CC[C@@H]2[C@H]3[C@@H]1[C@@H]1C/C(C)=C\CC[C@](C)(OC(=O)[C@@H]2C)[C@H]3O1	> 100 µM		> 100 µM	> 100 µM	> 100 µM	> 100 µM	26.9 µM	> 100 µM		> 100	47.9	30.3	60.3	41.2	52.9	13.2 µM	> 100	47.6	
NCCn1cnc2nc(NC(=O)c3ccccc3)[nH]c(=O)c21	> 100 µM	> 100	> 100 µM	> 100 µM	> 100 µM		> 100 µM		> 100 µM	> 100									
OCc1ncc(-c2ccccc2)s1	> 100 µM		> 100 µM	> 100 µM	> 100 µM	> 100 µM	> 100 µM	> 100 µM		> 100	> 100	> 100	> 100	> 100	> 100	> 100 µM	> 100	> 100	
COc1cccc2c1C(=O)c1c(O)c3c(c(O)c1C2=O)C[C@@](O)(C(C)=O)C[C@@H]3OC1CC(O)C(O)C(C)O1 (some centres undefined)	8.75 µM and 17.5 µM	15.3	23.6 µM	7.09 µM and 1.78 µM		9.94 µM and 16.9 µM	0.451 µM and 0.497 µM	8.99 µM and 42.6 µM	9.24 µM and 6.19 µM							0.089 µM and 0.0887 µM			1.49
Clc1ccc(N/N=C(\c2ccccc2)c2ccccn2)nc1	> 49.2 µM and 33.1 µM		11.2 µM and > 28.6 µM	> 33.7 µM and 12.3 µM	> 53.6 µM and 17.7 µM	> 100 µM and 56.2 µM	3.5 µM	> 100 µM			0.251	0.0379	0.31	0.506	0.0201	0.0769 µM		0.276	
CN(C)CCCN1c2ccc(O)cc2Sc2ccc(Cl)cc21	23.1 µM		24.5 µM	29.5 µM	29 µM	25.5 µM	15.8 µM	32.1 µM		30.5									
C/C(=C1/N=C(c2ccccc2)OC1=O)c1ccccc1	> 100 µM		> 100 µM	> 100 µM	> 100 µM	> 100 µM	> 100 µM	> 100 µM		> 100									
N=C1N=C(N)S/C1=C\c1ccc2ncccc2c1	> 25 µM		> 25 µM	> 25 µM	> 25 µM	> 25 µM	> 25 µM	> 25 µM		> 25	> 25	> 25	> 25	> 25	> 25	> 25 µM	> 25	> 25	
Oc1c(Cl)cc(CN(Cc2cc(Cl)c(O)c(Cl)c2)C2CCCCC2)cc1Cl	> 100 µM		> 100 µM	> 100 µM	> 100 µM	> 100 µM	> 100 µM	> 100 µM		> 100									
O=C(Nc1nc(-c2ccccc2)cs1)c1cc(O)c(O)c(O)c1	29.9 µM		13.6 µM	30.6 µM	55.1 µM	57.3 µM	19.9 µM	41.9 µM		> 100	3.19	3.39	5.73	6.97	2.22	1.62 µM	12	3.38	
COc1ccccc1Nc1nc2ccccc2c2occc12	33.8 µM		> 50 µM	> 50 µM	> 50 µM	19.3 µM	20.3 µM	> 50 µM		> 50	10.7	20.2	24.5	20.1	4.13	9.33 µM	16.1	17.6	
C[C@@H]1CC[C@@H]2[C@@H]1[C@H](OC(=O)c1ccc3ccccc3c1)[C@]1(C3CCCCC3)C[C@@H](OC(=O)CO)[C@@]2(C)O1	12.6 µM		27.1 µM	25.6 µM	25.3 µM	24.8 µM	14.4 µM	29 µM		26.5	0.0525	12.9	12.8	11.6	10.8	3.4 µM	14.4	5.62	

Reference: PubChem BioAssay (NCI)
